Experimental data reported in patent US20150197500A1, “NO-RELEASING GUANIDINE-CHROMENE CONJUGATES” (Euclises Pharmaceuticals, Inc., priority 2014, published 2015).
Counter-ions that a name gives are not always drawn.

Tested on: PGE2 production
Experiment: Rat air-pouch model for acute inflammation (PGE2 in exudate by ELISA)
Type: in vivo, Sprague-Dawley rats
Settings: oral gavage 0.01 mmol/kg 2 h before carrageenan, exudate 4 h after carrageenan, 6 rats/group
Protocol: A study of chromene release is assessed by measurement of PGE2 levels, which are indicative of inflammatory response.
Animals: Sprague-Dawley rats (Charles River Laboratories, R #3234, PO #738990, male, 160-180 g) are received, individually examined, and housed in cages of five rats each. The rats are ear notched for identification purposes.
Compounds and dosing solutions: The vehicle is prepared by dissolving 40 g (2-hydroxypropyl)-[…] making a 25% solution which is filter sterilized (0.2 μm, Nalgene, Cat. 151-4020, lot 1095610). […]
Day 6—Compound administration and carrageenan insult: At commencement of the study, each rat is weighed and sorted into treatment groups of 6 rats/group based upon average weight. […] The pouch is gently massaged, the exudate immediately removed, and exudate volume recorded. […]
Data analysis: The exudate samples are thawed to room temperature and assayed by ELISA for PGE2 (R&D Systems, Cat. KGE004B, lot 307711). Statistical significance of treatments on mean exudate volumes are determined by comparison of means for treatment groups with vehicle group. Mean cytokine concentrations and standard deviations are determined for each group. […] Statistical significance (p-value) is calculated vs control groups by Student's t-Test. […]

CC(=O)NC(CCCNC(=N)N)C(=O)OCOC(=O)C1=Cc2cc(Cl)c(C(C)(C)C)cc2OC1C(F)(F)F (stereo not shown) [Example 33a, trifluoroacetate salt]
% Inhibition of PGE2 production relative to control (+/−S.D.): 75.7 (+/−11.9) %
